{"source": "ChEMBL document CHEMBL1201862", "about": "“PubChem BioAssay data set” (2004)", "key": {"[1]": {"molecular_target": "Signal transducer and activator of transcription 3 (Homo sapiens, UniProt P40763)", "sequence (P40763 whole entry)": "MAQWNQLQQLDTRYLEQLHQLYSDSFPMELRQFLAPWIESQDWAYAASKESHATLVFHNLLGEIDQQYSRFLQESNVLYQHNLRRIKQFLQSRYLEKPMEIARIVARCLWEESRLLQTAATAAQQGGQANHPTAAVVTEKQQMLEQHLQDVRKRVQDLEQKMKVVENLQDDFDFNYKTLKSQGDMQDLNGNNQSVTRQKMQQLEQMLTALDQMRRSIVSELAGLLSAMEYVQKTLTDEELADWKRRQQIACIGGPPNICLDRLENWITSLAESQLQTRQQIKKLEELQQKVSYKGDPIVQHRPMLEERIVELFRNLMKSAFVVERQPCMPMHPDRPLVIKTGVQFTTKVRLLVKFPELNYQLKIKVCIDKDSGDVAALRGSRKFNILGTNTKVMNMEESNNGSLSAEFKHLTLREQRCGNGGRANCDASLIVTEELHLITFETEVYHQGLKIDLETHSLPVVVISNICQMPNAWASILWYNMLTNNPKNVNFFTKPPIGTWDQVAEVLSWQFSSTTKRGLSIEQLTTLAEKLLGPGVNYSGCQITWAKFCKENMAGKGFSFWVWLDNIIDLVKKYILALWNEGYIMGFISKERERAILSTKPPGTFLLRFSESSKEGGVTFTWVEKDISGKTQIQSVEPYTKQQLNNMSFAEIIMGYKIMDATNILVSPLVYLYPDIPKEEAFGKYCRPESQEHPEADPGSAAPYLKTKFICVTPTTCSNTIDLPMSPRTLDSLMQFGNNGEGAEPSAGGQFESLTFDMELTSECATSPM", "assay": "STAT3 activators, late-stage profile, late-stage follow-up, cell-based, STAT1 reporter, BCL3 qPCR, cytotoxicity, panel member STAT3 Activation (AID 2049)"}, "[2]": {"molecular_target": "Serine/threonine-protein phosphatase PP1-alpha catalytic subunit (Homo sapiens, UniProt P62136)", "sequence (P62136 whole entry)": "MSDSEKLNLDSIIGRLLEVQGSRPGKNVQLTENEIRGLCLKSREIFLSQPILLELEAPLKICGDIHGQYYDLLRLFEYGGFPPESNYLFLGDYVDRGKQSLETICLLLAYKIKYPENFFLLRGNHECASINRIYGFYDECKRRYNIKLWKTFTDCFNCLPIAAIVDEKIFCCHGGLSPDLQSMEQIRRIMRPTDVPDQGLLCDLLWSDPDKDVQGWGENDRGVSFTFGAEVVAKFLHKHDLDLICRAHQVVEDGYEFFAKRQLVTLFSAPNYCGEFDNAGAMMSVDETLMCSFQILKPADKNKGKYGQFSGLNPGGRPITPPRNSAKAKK", "assay": "PP1 phosphatase inhibitors, dose response, biochemical, fluorescence (AID 2403);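 note: phosphatase turnover of OMFP into fluorescent 3-O-methylfluorescein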"}, "[3]": {"molecular_target": "Serine/threonine-protein phosphatase (Homo sapiens, UniProt Q9BPW0)", "sequence (Q9BPW0 whole entry)": "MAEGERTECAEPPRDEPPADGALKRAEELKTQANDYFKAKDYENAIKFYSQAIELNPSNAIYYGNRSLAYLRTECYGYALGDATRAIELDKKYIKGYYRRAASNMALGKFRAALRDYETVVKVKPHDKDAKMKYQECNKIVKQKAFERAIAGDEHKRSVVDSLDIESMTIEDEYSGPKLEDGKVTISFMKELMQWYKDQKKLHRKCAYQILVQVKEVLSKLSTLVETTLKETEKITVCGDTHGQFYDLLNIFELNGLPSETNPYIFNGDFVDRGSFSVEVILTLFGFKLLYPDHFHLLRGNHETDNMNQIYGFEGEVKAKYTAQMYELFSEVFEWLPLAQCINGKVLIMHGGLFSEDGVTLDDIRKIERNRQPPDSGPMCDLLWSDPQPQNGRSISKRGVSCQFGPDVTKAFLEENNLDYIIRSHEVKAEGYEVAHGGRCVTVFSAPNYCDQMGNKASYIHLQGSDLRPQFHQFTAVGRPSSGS", "assay": "Counterscreen for inhibitors of PP1: fluorescence-based biochemical high throughput dose response assay to identify inhibitors of Protein Phosphatase 5 (PP5). [Related pubchem assays: 2034 (Summary (PP5 inhibitors)), 1987 (PP5 inhibitors in singlate), 2235 (PP1 inhibitors in singlate)]"}, "[4]": {"molecular_target": "NS3 (Hepatitis C virus, UniProt A3EZJ3)", "sequence (A3EZJ3 whole entry)": "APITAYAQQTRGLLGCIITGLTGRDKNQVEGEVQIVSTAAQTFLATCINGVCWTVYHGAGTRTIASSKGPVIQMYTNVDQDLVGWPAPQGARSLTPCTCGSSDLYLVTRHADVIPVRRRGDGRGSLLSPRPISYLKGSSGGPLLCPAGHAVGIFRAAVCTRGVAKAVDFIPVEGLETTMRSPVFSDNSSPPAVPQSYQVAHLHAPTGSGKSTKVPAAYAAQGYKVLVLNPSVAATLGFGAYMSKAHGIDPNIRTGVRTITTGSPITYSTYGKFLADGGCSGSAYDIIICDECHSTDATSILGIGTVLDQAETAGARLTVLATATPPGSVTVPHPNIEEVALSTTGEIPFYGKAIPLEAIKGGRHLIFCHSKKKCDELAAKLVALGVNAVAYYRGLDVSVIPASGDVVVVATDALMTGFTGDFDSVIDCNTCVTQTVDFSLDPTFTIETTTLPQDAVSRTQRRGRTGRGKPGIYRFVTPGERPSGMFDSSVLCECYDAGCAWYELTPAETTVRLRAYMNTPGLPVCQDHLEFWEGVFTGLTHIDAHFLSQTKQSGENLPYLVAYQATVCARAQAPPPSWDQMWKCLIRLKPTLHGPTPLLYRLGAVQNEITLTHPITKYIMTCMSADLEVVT", "assay": "PubChem AID 2173", "design": "species or system Hepacivirus hominis"}, "[5]": {"molecular_target": "Eukaryotic translation initiation factor 4H (Homo sapiens, UniProt Q15056)", "assay": "human eIF4H binding inhibitors, primary screen, translation initiation inhibitor project, biochemical, uHTS, fluorescence polarization (AID 2012)"}, "[6]": {"molecular_target": "Polyadenylate-binding protein 1 (Homo sapiens, UniProt P11940)", "sequence (P11940 whole entry)": "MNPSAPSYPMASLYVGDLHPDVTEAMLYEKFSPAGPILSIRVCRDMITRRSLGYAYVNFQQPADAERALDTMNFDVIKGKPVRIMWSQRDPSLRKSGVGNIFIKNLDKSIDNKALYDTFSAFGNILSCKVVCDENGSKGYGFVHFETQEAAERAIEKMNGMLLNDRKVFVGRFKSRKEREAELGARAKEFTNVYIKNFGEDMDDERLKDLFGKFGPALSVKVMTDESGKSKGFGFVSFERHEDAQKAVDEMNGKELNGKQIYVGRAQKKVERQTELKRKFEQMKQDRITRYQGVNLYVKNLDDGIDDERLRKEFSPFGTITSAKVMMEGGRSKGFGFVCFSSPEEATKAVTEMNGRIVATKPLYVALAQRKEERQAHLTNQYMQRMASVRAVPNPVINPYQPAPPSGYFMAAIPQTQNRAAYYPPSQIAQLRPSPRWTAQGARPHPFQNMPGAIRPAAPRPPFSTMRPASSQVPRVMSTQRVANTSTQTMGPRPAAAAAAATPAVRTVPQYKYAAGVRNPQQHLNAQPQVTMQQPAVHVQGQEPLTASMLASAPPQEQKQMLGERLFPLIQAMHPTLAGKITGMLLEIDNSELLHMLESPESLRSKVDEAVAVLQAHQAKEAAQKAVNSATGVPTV", "assay": "PABP poly(A) RNA binding inhibitors, primary screen, biochemical, fluorescence polarization, uHTS (AID 2014)"}, "[7]": {"molecular_target": "Acyl-homoserine lactone acylase PvdQ (Pseudomonas aeruginosa (strain LESB58), UniProt Q9I194)", "sequence (Q9I194 24-193 limits assumed)": "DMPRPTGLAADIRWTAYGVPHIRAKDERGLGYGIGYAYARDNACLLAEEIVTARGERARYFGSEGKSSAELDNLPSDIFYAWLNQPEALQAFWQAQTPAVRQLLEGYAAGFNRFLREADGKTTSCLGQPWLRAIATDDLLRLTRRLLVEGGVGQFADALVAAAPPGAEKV", "sequence (Q9I194 217-762 limits assumed)": "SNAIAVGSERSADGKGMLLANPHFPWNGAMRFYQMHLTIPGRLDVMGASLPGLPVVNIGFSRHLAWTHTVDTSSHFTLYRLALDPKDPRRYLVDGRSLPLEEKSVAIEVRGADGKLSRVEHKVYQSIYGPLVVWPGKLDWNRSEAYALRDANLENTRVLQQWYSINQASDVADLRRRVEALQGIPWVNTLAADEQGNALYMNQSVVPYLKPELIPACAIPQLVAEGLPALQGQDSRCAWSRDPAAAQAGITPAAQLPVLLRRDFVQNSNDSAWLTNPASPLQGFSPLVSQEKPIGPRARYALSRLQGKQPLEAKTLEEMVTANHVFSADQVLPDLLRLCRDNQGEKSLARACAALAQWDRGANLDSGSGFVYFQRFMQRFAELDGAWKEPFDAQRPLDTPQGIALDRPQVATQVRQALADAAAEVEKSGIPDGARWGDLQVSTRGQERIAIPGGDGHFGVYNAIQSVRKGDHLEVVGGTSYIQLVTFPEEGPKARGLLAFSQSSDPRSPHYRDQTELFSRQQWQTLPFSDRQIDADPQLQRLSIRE", "assay": "P. aeruginosa PvdQ acylase inhibitors, dose response, biochemical, fluorescence, plate reader and imaging, cherry-picks (AID 493231)"}, "[8]": {"molecular_target": "T1, Estrogen receptor (Homo sapiens, UniProt P03372)", "T1 sequence (P03372 whole entry)": "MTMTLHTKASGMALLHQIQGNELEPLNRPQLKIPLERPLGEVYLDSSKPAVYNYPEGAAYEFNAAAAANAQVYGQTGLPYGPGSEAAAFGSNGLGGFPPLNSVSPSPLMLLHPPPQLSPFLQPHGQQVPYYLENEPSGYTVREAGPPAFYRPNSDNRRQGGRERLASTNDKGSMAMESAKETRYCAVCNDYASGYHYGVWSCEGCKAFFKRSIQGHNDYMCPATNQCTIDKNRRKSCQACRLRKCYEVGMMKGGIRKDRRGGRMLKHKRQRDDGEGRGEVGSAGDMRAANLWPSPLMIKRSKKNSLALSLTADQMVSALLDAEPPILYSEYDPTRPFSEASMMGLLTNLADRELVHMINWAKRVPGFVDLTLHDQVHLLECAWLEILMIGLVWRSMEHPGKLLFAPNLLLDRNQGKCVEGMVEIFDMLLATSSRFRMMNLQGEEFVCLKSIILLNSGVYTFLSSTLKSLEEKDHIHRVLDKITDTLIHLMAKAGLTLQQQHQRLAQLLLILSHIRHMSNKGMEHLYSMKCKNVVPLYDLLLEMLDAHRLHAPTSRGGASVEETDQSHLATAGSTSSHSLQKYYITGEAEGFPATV", "assay": "ERα–SRC-3 coactivator interaction inhibitors, confirmation, orthogonal assay, biochemical, ELISA, streptavidin-HRP readout (AID 1079)"}, "[9]": {"assay": "A Cell Based Secondary Assay To Explore Cytotoxicity of Compounds that Sensitize Mycobacterium Tuberculosis to Beta-Lactam Antibiotics.", "assay_type": "functional"}, "[10]": {"tested_on": "Vero", "assay": "cells", "assay_type": "functional", "settings": "Chlorocebus sabaeus"}}, "note": "The source made the active and inactive calls.", "data": [{"smiles": "COc1cc(NC(=O)c2cc(C3CC3)on2)ccc1Br", "values": [{"measurement": "EC50", "setting": "[1]", "value": "> 5.57 µM (inactive)"}]}, {"smiles": "CCn1c2ccccc2c2cc(NC(=O)COC(=O)c3ccc(NC(=O)CC#N)cc3)ccc21", "values": [{"measurement": "IC50", "setting": "[2]", "value": "7.27 µM (active)"}, {"measurement": "IC50", "setting": "[3]", "value": "> 67 µM (not active)"}]}, {"smiles": "CCCOc1ccc(C2C(C(=O)c3ccc(C)o3)=C(O)C(=O)N2Cc2ccco2)cc1OCC", "note": "(stereo not given)", "values": [{"measurement": "IC50", "setting": "[4]", "value": "5.19 µM (active)"}]}, {"smiles": "O=C(C[n+]1ccccc1)c1ccc(Cl)cc1", "values": [{"measurement": "IC50", "setting": "[5]", "value": "> 100 µM (inactive)"}, {"measurement": "IC50", "setting": "[6]", "value": "5.96 µM (active)"}]}, {"smiles": "N#CC(c1ccc(Cl)nn1)c1ccc(Cl)cc1Cl", "note": "(stereo not given)", "values": [{"measurement": "AC50", "setting": "[7]", "value": "0.646 µM (active)"}]}, {"smiles": "O=C(CCCn1c(=S)[nH]c2ccccc2c1=O)N1CCN(c2cccc(O)c2)CC1", "values": [{"measurement": "IC50", "setting": "[8]", "value": "1.62 µM (not active)"}]}, {"smiles": "Cn1c(=O)c2ccccc2n2c(CCl)nnc12", "values": [{"measurement": "CC50", "setting": "[9]", "value": "30.5 µM (active)"}, {"measurement": "CC50", "setting": "[10]", "value": "18 µM (active)"}]}]}
